Experimental data taken from BindingDB's records for doi:10.1021/jm000317+ (Virginia Commonwealth University, 2001).

Assay: Ki value determined against Sigma opioid receptor type 2 using [3H]DTG(5 nM) with 1uM dextrallorphan to mask sigma1 binding

Compound | Ki
CC1C2Cc3ccc(O)cc3[C@@]1(C)CCN2CCCCCCC#N (some centres not stated) [7-(8-Hydroxy-6,11-dimethyl-1,2,5,6-tetrahydro-4H-2,6-methano-benzo[d]azocin-3-yl)-heptanenitrile] | 1.9 µM
C#CCCN1CC[C@]2(C)c3cc(O)ccc3CC1C2C (some centres not stated) [3-But-3-ynyl-6,11-dimethyl-1,2,3,4,5,6-hexahydro-2,6-methano-benzo[d]azocin-8-ol] | 15 µM
C=CCCCCN1CC[C@]2(C)c3cc(O)ccc3CC1C2C (some centres not stated) [3-Hex-5-enyl-6,11-dimethyl-1,2,3,4,5,6-hexahydro-2,6-methano-benzo[d]azocin-8-ol] | 0.76 µM
C=CCCN1CC[C@]2(C)c3cc(O)ccc3CC1C2C (some centres not stated) [3-But-3-enyl-6,11-dimethyl-1,2,3,4,5,6-hexahydro-2,6-methano-benzo[d]azocin-8-ol] | 7.6 µM
C=CCCCN1CC[C@]2(C)c3cc(O)ccc3CC1C2C (some centres not stated) [6,11-Dimethyl-3-pent-4-enyl-1,2,3,4,5,6-hexahydro-2,6-methano-benzo[d]azocin-8-ol] | 2.5 µM
CC1C2Cc3ccc(O)cc3[C@@]1(C)CCN2CCC#N (some centres not stated) [3-(8-Hydroxy-6,11-dimethyl-1,2,5,6-tetrahydro-4H-2,6-methano-benzo[d]azocin-3-yl)-propionitrile] | > 100 µM
CC1C2Cc3ccc(O)cc3[C@@]1(C)CCN2CCCCC#N (some centres not stated) [5-(8-Hydroxy-6,11-dimethyl-1,2,5,6-tetrahydro-4H-2,6-methano-benzo[d]azocin-3-yl)-pentanenitrile] | 13 µM
CC1C2Cc3ccc(O)cc3[C@@]1(C)CCN2CCCCCC#N (some centres not stated) [6-(8-Hydroxy-6,11-dimethyl-1,2,5,6-tetrahydro-4H-2,6-methano-benzo[d]azocin-3-yl)-hexanenitrile] | 5.7 µM
CC1C2Cc3ccc(O)cc3[C@@]1(C)CCN2CC#N (some centres not stated) [(8-Hydroxy-6,11-dimethyl-1,2,5,6-tetrahydro-4H-2,6-methano-benzo[d]azocin-3-yl)-acetonitrile] | 93 µM
C=CCN1CC[C@]2(C)c3cc(O)ccc3CC1C2C (some centres not stated) [3-Allyl-6,11-dimethyl-1,2,3,4,5,6-hexahydro-2,6-methano-benzo[d]azocin-8-ol] | 27 µM
CC1C2Cc3ccc(O)cc3[C@@]1(C)CCN2CCCC#N (some centres not stated) [4-(8-Hydroxy-6,11-dimethyl-1,2,5,6-tetrahydro-4H-2,6-methano-benzo[d]azocin-3-yl)-butyronitrile] | 34 µM
C#CCCCN1CC[C@]2(C)c3cc(O)ccc3CC1C2C (some centres not stated) [6,11-Dimethyl-3-pent-4-ynyl-1,2,3,4,5,6-hexahydro-2,6-methano-benzo[d]azocin-8-ol] | 3.5 µM
